{"source": "patent US6107104A", "about": "“Modulators of anchoring protein function” (ICOS Corporation, priority 1996, dated 2000)", "key": {"[1]": {"details": "in vivo; cited from earlier work"}, "CaN": {"target": "T1, CaN (Rattus norvegicus, UniProt P63329)", "T1 construct": "made in house; host or cells: Sf9 cells (baculovirus)", "test": "CaN phosphatase activity toward 32P RII peptide substrate", "type": "biochemical", "description": "(§1) To determine whether AKAP 79 peptide binding inhibits CaN activity, CaN phosphatase activity was assayed in the presence of recombinant AKAP 79. Briefly, recombinant AKAP 79 was expressed in E. coli as described in Carr et al., J. Biol. Chem., 267:16816-16823 (1992), incorporated herein by reference. CaN and the constitutively active truncation mutant CaN420 (a truncated, Ca^2+ /calmodulin independent constitutively active form of CaN (Perrino et al., J. Biol. Chem., in press)) were expressed in Sf9 cells and purified on calmodulin-Sepharose as described in Perrino et al., J. Biol Chem., 267:15965-15969 (1992), incorporated herein by reference. Phosphatase activity toward ^32 P RII peptide substrate was measured as described in Perrino et al., supra. CaN (30 nM), calmodulin (100 nM) and ^32 P RII peptide (22 μM) were incubated with AKAP 79 protein and AKAP 79 peptide (SEQ ID NO:1-amino acids 81-102) over the range of concentrations indicated in FIG. 1B. Calmodulin was omitted from CaN420 assays. ^32 P released from the substrate was measured in triplicate samples in three separate experiments by scintillation counting. The inhibition constant (Ki) of recombinant AKAP 79 for CaN was determined by linear regression analysis of data. Ki values for AKAP 79 peptide were estimated by determining the IC50 using a fixed substrate concentration at Km (42 μM)."}, "[2]": {"details": "following liver transplantation; cited from earlier work"}, "protein phosphatases 1": {"system": "protein phosphatases 1", "test": "Protein phosphatase 1 activity", "type": "biochemical", "details": "peptide concentrations as high as 0.4 mM"}, "CaN420": {"target": "T2, CaN420 (Rattus norvegicus, UniProt P63329)", "T2 construct": "a truncated, Ca^2+ /calmodulin independent constitutively active form of CaN; made in house; host or cells: Sf9 cells (baculovirus)", "test": "CaN420 phosphatase activity toward 32P RII peptide substrate", "type": "biochemical", "details": "calmodulin omitted", "description": "as §1"}, "protein phosphatases 2A": {"system": "protein phosphatases 2A", "test": "Protein phosphatase 2A activity", "type": "biochemical", "details": "peptide concentrations as high as 0.4 mM"}, "^32 P-inhibitor 1": {"system": "^32 P-inhibitor 1", "test": "Calcineurin phosphatase assay of reconstituted CaN holo-enzyme", "type": "biochemical", "details": "in association with CaN B, ten minute incubation at room temperature, 33 nM complex", "description": "The activity of CaN is measured by the Ca^2+ --and calmodulin-dependentrelease of ^32 Pi from ^32 P-inhibitor 1, using the method of Nairn, et al. [Neuroprotocols 6:108-111 (1995)]. Identified chemicals are pre-incubated with 4 or 30 nM CaN before initiation of the reaction with ^32 P-inhibitor 1 (Chemicon). Inhibitor 1 (50 μg) was phosphorylated using the catalytic subunit of PKA and purified according to the procedure described in Nairn, et al., [supra]. Phosphatase activity in the absence of chemicals is defined as 100%.\nIn order to determine if the mutated CaN A protein retained phosphatase activity, a CaN holo-enzyme was reconstituted. One micromole of purified wild type or mutant CaN A was incubated with equal molar amount of purified CaN B (Chemicon), and calmodulin (Sigma) in 50 mM Hepes, pH 7.5, 1 mM MnCl2, 0.5 mM EDTA, 1 mM DDT, and 2 mg/ml BSA, for 24 hours at 4° C., after which 33 nM of the reconstituted complex was used in a calcineurin phosphatase assay using ^32 P-inhibitor 1 as substrate as described in Example 14."}}, "note": "Ends that are not written are not given here.", "data": [{"molecule": "N=C(N)NCCCCCCC(=O)NC(O)C(=O)NCCCCNCCCN", "note": "(centres unmarked) [15-Deoxyspergualin]", "values": [{"measurement": "effective in refractory kidney rejection", "setting": "[1]", "result": "70-90%"}]}, {"molecule": "C=CC[C@@H]1/C=C(\\C)C[C@H](C)C[C@H](OC)[C@H]2O[C@@](O)(C(=O)C(=O)N3CCCC[C@H]3C(=O)O[C@H](/C(C)=C/[C@@H]3CC[C@@H](O)[C@H](OC)C3)[C@H](C)[C@@H](O)CC1=O)[C@H](C)C[C@@H]2OC", "note": "[FK506, reference compound]", "values": [{"measurement": "effect on the potency of inhibition of CaN by AKAP 79", "setting": "CaN; FK506 2 μM", "result": "did not affect"}, {"measurement": "patients with moderate to severe neurotoxicity", "setting": "[2]", "result": "10-20%"}]}, {"molecule": "RRKRSQSSKEEKP [AKAP 79 peptide]", "values": [{"measurement": "effect on activity of protein phosphatase 1", "setting": "protein phosphatases 1", "result": "did not significantly affect"}, {"measurement": "inhibition of full-length CaN phosphatase activity", "setting": "CaN; Ca2+/calmodulin dependent CaN 30 nM, 32P RII peptide substrate", "result": "inhibited"}, {"measurement": "inhibition of CaN420 phosphatase activity", "setting": "CaN420", "result": "inhibited"}, {"measurement": "effect on activity of protein phosphatase 2A", "setting": "protein phosphatases 2A", "result": "did not significantly affect"}]}, {"molecule": "biotinylated CaN A: endogenously biotinylated rat brain calcineurin A, wild type", "values": [{"measurement": "dephosphorylation of substrate", "setting": "^32 P-inhibitor 1", "result": 33, "unit": "%"}]}]}
